Experiments:
Assay type in all cases: binding
[1] = tested on: human cell lysate (HEK293T); assay: IA-DTB chemoproteomics, proteome-wide engagement in lysate; conditions: engaged peptides log2 CR ≤−1, P-value ≤0.05 vs DMSO
Procedure: (§1) HEK293T lysate supplemented with recombinant SspH1 (161–700) and SspH2 (166–783) was treated with a dilution series […] of either compound 6 or 7 for four hours at RT. Following compound treatments, we used an iodoacetamide-desthiobiotin (IA-DTB) competitive chemoproteomics workflow to assess cysteine engagement.[52] Comparison of DMSO treated lysate with compound treated lysate enabled identification of peptides where IA-DTB labelling of cysteines was blocked due to fragment engagement (Fig. S5). […] Competition of the SspH2 C580 peptide occurred at lower concentrations compared to the SspH1 C492 peptide, which corroborated our previous kinetics experiments that both compounds label SspH2 faster than SspH1 (Fig. S4).
(§2) A pellet of 50 × 10^6 HEK293T cells was resuspended in 5 mL lysis buffer (50 mM HEPES pH 8.0, 150 mM NaCl, 1% IGEPAL, 0.1% SDS, 0.5% Na-deoxycholate, supplemented with protease inhibitor cocktail (Sigma-Aldrich, P8340)). The lysate was sonicated and centrifuged (10 min, 17 000 × g) and the soluble fraction isolated. Protein concentrations were measured using a Rapid BCA Gold Protein Assay Kit (Thermo Scientific, A53226) and diluted to 0.75 mg mL^−1 with lysis buffer. The lysate was then spiked with 0.2 μM of each recombinant SspH1 (aa 161–700) and SspH2 (aa 166–783). […]

SspH2 (C580) = biological target: T1, SspH2 (C580) (Salmonella typhimurium, UniProt D0ZPH9); assay: IA-DTB competitive chemoproteomics in spiked HEK293T lysate; conditions: HEK293T lysate spiked with recombinant protein, four hours at RT
T1 construct: Recombinant SspH1 (aa 161–700) and SspH2 (aa 166–783) were both characterised; His-tag (N, cleaved yes); made in house; host or cells: E. coli BL21
Procedure: as §1
(§3) Fig. 5 Characterisation of protein interactions by compounds 6 and 7. (A) SspH1 and SspH2 catalytic cysteine labelling with compound 6 (100–3.125 μM, 4 hours) in HEK293T lysate spiked with recombinant SspH1 and SspH2. Data are presented as mean ± SEM, n = 4. The curves were fitted with GraphPad Prism 10 using four parameter nonlinear regression with baseline correction to DMSO-treated samples. (B) SspH1 and SspH2 catalytic cysteine labelling with compound 7 (100–3.125 μM, 4 hours) in HEK293T lysate spiked with recombinant SspH1 and SspH2. Data are presented as mean ± SEM, n = 4. The curves were fitted with GraphPad Prism 10 using four parameter nonlinear regression with baseline correction to DMSO-treated samples. (C) Volcano plot of IA-DTB competition in SspH1 expressing HEK293T cells treated with compound 6 (50 μM, 4 hours). (D) Volcano plot of IA-DTB competition in SspH2 expressing HEK293T cells treated with compound 6 (50 μM, 4 hours). Data is shown as compared to DMSO treated samples, with competed peptides in the upper left-hand quadrant. Competed catalytic cysteine-containing peptides of HECT E3s (yellow), UCH DUBs (blue) and OTU DUBs (purple) are indicated. All proteomics experiments were performed with technical quadruplicates.
as §2, with “166–783). For each condition, four wells were treated and processed separately, representing four technical replicates. 2 μL of 100× stocks of compounds 6 and 7 in DMSO (10–0.156 mM, and DMSO only control), and 200 μL lysate was added to a 96-well plate.” for “166–783).”

SspH1 (C492) = biological target: T2, SspH1 (C492) (Salmonella typhimurium, UniProt D0ZVG2); assay: as above; conditions: HEK293T lysate spiked with recombinant protein, four hours at RT
T2 construct: Recombinant IpaH9.8 (21–545) and SspH1 (161–700) were incubated at 0.5 μM; His-tag (N, cleaved yes); made in house; host or cells: E. coli BL21
Procedure: as §1, §3
as §2, with “166–783). For each condition, four wells were treated and processed separately, representing four technical replicates. 2 μL of 100× stocks of compounds 6 and 7 in DMSO (10–0.156 mM, and DMSO only control), and 200 μL lysate was added to a 96-well plate.” for “166–783).”

T2 sequence (D0ZVG2 161-700): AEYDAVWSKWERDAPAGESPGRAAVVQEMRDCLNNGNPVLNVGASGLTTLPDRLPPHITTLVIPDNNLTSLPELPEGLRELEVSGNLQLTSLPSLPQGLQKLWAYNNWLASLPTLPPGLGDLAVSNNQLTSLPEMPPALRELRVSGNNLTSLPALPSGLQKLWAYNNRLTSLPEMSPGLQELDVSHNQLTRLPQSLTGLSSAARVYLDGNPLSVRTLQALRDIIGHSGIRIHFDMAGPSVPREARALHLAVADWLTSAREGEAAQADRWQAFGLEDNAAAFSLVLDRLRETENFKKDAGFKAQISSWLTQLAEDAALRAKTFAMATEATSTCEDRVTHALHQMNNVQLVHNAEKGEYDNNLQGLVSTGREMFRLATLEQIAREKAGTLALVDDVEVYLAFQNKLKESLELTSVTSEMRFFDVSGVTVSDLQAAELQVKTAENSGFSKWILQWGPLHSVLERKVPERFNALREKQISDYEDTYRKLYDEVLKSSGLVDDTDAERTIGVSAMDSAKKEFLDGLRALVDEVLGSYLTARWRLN
T1 sequence (D0ZPH9 166-783): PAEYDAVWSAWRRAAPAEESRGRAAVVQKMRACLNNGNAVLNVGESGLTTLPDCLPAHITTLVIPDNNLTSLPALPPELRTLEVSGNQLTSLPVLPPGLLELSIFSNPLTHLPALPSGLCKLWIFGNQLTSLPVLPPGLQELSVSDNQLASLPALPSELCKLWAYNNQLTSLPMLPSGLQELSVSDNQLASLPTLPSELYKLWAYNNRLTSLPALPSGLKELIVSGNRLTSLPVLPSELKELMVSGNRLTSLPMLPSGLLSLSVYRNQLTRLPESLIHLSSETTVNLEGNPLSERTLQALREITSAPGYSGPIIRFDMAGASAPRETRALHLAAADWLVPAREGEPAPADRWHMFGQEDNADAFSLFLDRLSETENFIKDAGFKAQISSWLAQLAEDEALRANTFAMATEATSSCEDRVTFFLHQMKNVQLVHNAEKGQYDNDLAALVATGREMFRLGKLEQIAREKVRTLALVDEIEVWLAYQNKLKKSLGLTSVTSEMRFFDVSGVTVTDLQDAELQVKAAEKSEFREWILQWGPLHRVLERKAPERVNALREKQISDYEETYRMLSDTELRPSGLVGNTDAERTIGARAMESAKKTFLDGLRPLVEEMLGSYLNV

Structure (SMILES)	proteome-wide labelling in human cell lysate [1]	competition of IA-DTB labelling of the C580 peptide for SspH2 (SspH2 (C580))	competition of IA-DTB labelling of the C492 peptide for SspH1 (SspH1 (C492))
Cl.O=C(CCl)N1CCC(n2c(-c3ccc(C(F)(F)F)cc3)nc3ccccc32)CC1 [compound 7]	promiscuous protein labellers	concentration-dependent competition	concentration-dependent competition
Cc1cc(-c2nc3ccccc3n2C2CCN(C(=O)CCl)CC2)cc(C)c1O.Cl [compound 6]	promiscuous protein labellers	concentration-dependent competition	concentration-dependent competition

Reference: publication PMC12584752, “Covalent fragment screening to inhibit the E3 ligase activity of bacterial NEL enzymes SspH1 and SspH2” (RSC Chemical Biology, 2025)
